Data on 52 sequences can be found in the supplement of paper PMC11208160.
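Note: IS621 bridge recombinase in Escherichia coli cells against a fixed T5 target plasmid.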

This series in a line: recombinant UMI read abundance after kanamycin selection (control-corrected) (log10(CPM+1)); higher = more efficient recombination; extreme values may be limits of the assay; sequences stand for … in AGTGCAGAGAAAATCGGCCAGTTTTCTCTGCCTGCAGTCCGCATGCCGTGGGACCCCTTGGGTTCTAACCTGTTGCCTAGATTTATGCAGCGGACTGCCTTTCTCCCAAAGTGATAAACCGG…AGGTTGGTTTCACT; site = the 11-nt donor. The method, boiled down: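 Each donor and donor-binding-loop pair was tracked by a 12-nt UMI on a plasmid carrying a promoterless kanamycin gene. With a second plasmid supplying a fixed target and T7-inducible IS621 bridge recombinase, the pool was plated in Escherichia coli on IPTG (0.07 mM) plus kanamycin or unselected. Sequencing of recombinant UMIs across the donor–target junction gave counts expressed as log10(CPM+1) after replicate averaging and control-derived scaling.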
Turning to “TGGGTGCCATGGACCGGTTTTCCCGGTAATCCGTATTTGAC (site TGGGTGCCTGT)”, the “recombinant UMI read abundance (log10)” value was 0.
Take “TGGTAGCCATGGACCGGTTTTCCCGGTAATCCGTATTTGTT (site TGGTAGCCTAA)”: the “recombinant UMI read abundance (log10)” value was 0.256.
The figure for “TGGTCATCATGGACCGGTTTTCCCGGTAATCCGTATTTGAG (site TGGTCATCTCT)” is 0.0288.
The figure for “TGGTGCCCATGGACCGGTTTTCCCGGTAATCCGTATTTGGT (site TGGTGCCCTAC)” is 0.00779; for “TGGTGTCCATGGACCGGTTTTCCCGGTAATCCGTATTTGAG (site TGGTGTCCTCT)” it is 0.0312; for “TGGTTATCATGGACCGGTTTTCCCGGTAATCCGTATTTGTC (site TGGTTATCTGA)” it is 0.968.
Regarding “TGTAAATCATGGACCGGTTTTCCCGGTAATCCGTATTTGTT (site TGTAAATCTAA)”, the “recombinant UMI read abundance (log10)” value came out at 1.13.
The figure for “TGTAACGCATGGACCGGTTTTCCCGGTAATCCGTATTTGTG (site TGTAACGCTCA)” is 0.0113.
Next, “TGTACAACATGGACCGGTTTTCCCGGTAATCCGTATTTGAC (site TGTACAACTGT)”: 0.315.
Next, “TGTACAACATGGACCGGTTTTCCCGGTAATCCGTATTTGAC (site TGTACACCTGT)”: 0.
For “TGTACAACATGGACCGGTTTTCCCGGTAATCCGTATTTGAC (site TGTACAGCTGT)”, the “recombinant UMI read abundance (log10)” value worked out at 0.
Regarding “TGTACAACATGGACCGGTTTTCCCGGTAATCCGTATTTGAC (site TGTACATCTGT)”, the “recombinant UMI read abundance (log10)” value was determined as 0.295.
As to “TGTACACCATGGACCGGTTTTCCCGGTAATCCGTATTTGTC (site TGTACACCTGA)”, the “recombinant UMI read abundance (log10)” value was 0.
The figure for “TGTACACCATGGACCGGTTTTCCCGGTAATCCGTATTTGTC (site TGTACACCTGC)” is 0; for “TGTACACCATGGACCGGTTTTCCCGGTAATCCGTATTTGTC (site TGTACACCTGG)” it is 0.
Next, “TGTACACCATGGACCGGTTTTCCCGGTAATCCGTATTTGTC (site TGTACACCTGT)”: 0; “TGTACAGCATGGACCGGTTTTCCCGGTAATCCGTATTTGAC (site TGTACAACTGT)”: 0.
The figure for “TGTACAGCATGGACCGGTTTTCCCGGTAATCCGTATTTGAC (site TGTACACCTGT)” is 0.
Turning to “TGTACAGCATGGACCGGTTTTCCCGGTAATCCGTATTTGAC (site TGTACAGCTGT)”, the “recombinant UMI read abundance (log10)” value amounted to 1.75.
“TGTACAGCATGGACCGGTTTTCCCGGTAATCCGTATTTGAC (site TGTACATCTGT)”: the “recombinant UMI read abundance (log10)” value is 0.647.
Next, “TGTACATCATGGACCGGTTTTCCCGGTAATCCGTATTTGAC (site TGTACAACTGT)”: 0; “TGTACATCATGGACCGGTTTTCCCGGTAATCCGTATTTGAC (site TGTACACCTGT)”: 0.
Next, “TGTACATCATGGACCGGTTTTCCCGGTAATCCGTATTTGAC (site TGTACAGCTGT)”: 0; “TGTACATCATGGACCGGTTTTCCCGGTAATCCGTATTTGAC (site TGTACATCTGT)”: 0.
Next, “TGTAGCTCATGGACCGGTTTTCCCGGTAATCCGTATTTGAA (site TGTAGCTCTTT)”: 0.301; “TGTAGCTCATGGACCGGTTTTCCCGGTAATCCGTATTTGGG (site TGTAGCTCTCC)”: 0.0269.
For “TGTAGGACATGGACCGGTTTTCCCGGTAATCCGTATTTGAA (site TGTAGGACTTT)”, the “recombinant UMI read abundance (log10)” value stood at 0.373.
Turning to “TGTCAAACATGGACCGGTTTTCCCGGTAATCCGTATTTGGG (site TGTCAAACTCC)”, the “recombinant UMI read abundance (log10)” value turned out to be 0.00984.
The figure for “TGTCAGACATGGACCGGTTTTCCCGGTAATCCGTATTTGTG (site TGTCAGACTCA)” is 0.0321; for “TGTCCTACATGGACCGGTTTTCCCGGTAATCCGTATTTGGA (site TGTCCTACTTC)” it is 0.0197.
Next, “TGTCCTGCATGGACCGGTTTTCCCGGTAATCCGTATTTGTT (site TGTCCTGCTAA)”: 0.011.
Consider “TGTCGCGCATGGACCGGTTTTCCCGGTAATCCGTATTTGCA (site TGTCGCGCTTG)”, for which the “recombinant UMI read abundance (log10)” value was determined as 0.897.
“TGTCGGACATGGACCGGTTTTCCCGGTAATCCGTATTTGCG (site TGTCGGACTCG)”: the “recombinant UMI read abundance (log10)” value amounted to 1.4.
Next, “TGTGCACCATGGACCGGTTTTCCCGGTAATCCGTATTTGAC (site TGTACACCTGT)”: 0.
The figure for “TGTGCACCATGGACCGGTTTTCCCGGTAATCCGTATTTGAC (site TGTCCACCTGT)” is 0.0317.
Next, “TGTGCACCATGGACCGGTTTTCCCGGTAATCCGTATTTGAC (site TGTGCACCTGT)”: 0; “TGTGCACCATGGACCGGTTTTCCCGGTAATCCGTATTTGAC (site TGTTCACCTGT)”: 0.
For the sequence “TGTGCCCCATGGACCGGTTTTCCCGGTAATCCGTATTTGTA (site TGTACCCCTTA)”, the “recombinant UMI read abundance (log10)” value amounted to 0.126.
The figure for “TGTGCCCCATGGACCGGTTTTCCCGGTAATCCGTATTTGTA (site TGTCCCCCTTA)” is 0.0113; for “TGTGCCCCATGGACCGGTTTTCCCGGTAATCCGTATTTGTA (site TGTGCCCCTTA)” it is 0.0922.
Next, “TGTGCCCCATGGACCGGTTTTCCCGGTAATCCGTATTTGTA (site TGTTCCCCTTA)”: 0.0156.
The figure for “TGTGCTGCATGGACCGGTTTTCCCGGTAATCCGTATTTGAA (site TGTGCTGCTTT)” is 0.011.
Take “TGTGGAACATGGACCGGTTTTCCCGGTAATCCGTATTTGTT (site AGTGGAACTAA)”: the “recombinant UMI read abundance (log10)” value was determined as 0.0127.
In the case of “TGTGGAACATGGACCGGTTTTCCCGGTAATCCGTATTTGTT (site CGTGGAACTAA)”, the “recombinant UMI read abundance (log10)” value was 0.0659.
Next, “TGTGGAACATGGACCGGTTTTCCCGGTAATCCGTATTTGTT (site GGTGGAACTAA)”: 0.
In the case of “TGTGGAACATGGACCGGTTTTCCCGGTAATCCGTATTTGTT (site TGTGGAACTAA)”, the “recombinant UMI read abundance (log10)” value was determined as 0.511.
Take “TGTGTAACATGGACCGGTTTTCCCGGTAATCCGTATTTGAC (site TGTGTAACTGT)”: the “recombinant UMI read abundance (log10)” value came out at 0.
The figure for “TGTTAGGCATGGACCGGTTTTCCCGGTAATCCGTATTTGGT (site TGATAGGCTAC)” is 0.0087; for “TGTTAGGCATGGACCGGTTTTCCCGGTAATCCGTATTTGGT (site TGCTAGGCTAC)” it is 0.304.
On to “TGTTAGGCATGGACCGGTTTTCCCGGTAATCCGTATTTGGT (site TGGTAGGCTAC)”, for which the “recombinant UMI read abundance (log10)” value amounted to 0.017.
Next, “TGTTAGGCATGGACCGGTTTTCCCGGTAATCCGTATTTGGT (site TGTTAGGCTAC)”: 0.273; “TGTTCACCATGGACCGGTTTTCCCGGTAATCCGTATTTGAC (site TGTACACCTGT)”: 0.
